The results in this text go back to PubChem BioAssay (NCI).

“And” between values parts separate entries of the source, which are not always exact repeats. Identical values can stand only once.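 Following 48 hours of exposure in 96-well plates, responses at five concentrations were used to interpolate endpoints linearly. GI50 = concentration required for 50% inhibition of growth. TGI is the concentration that stops growth completely.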

Some test systems named below: MALME-3M melanoma; M14 melanoma; NCI-H23 lung; LOX IMVI melanoma; TK-10 renal; HCC-2998 colon; SK-MEL-5 melanoma; OVCAR-4 ovarian; HCT-15 colon; BT-549 breast.
What all share (experiment): inhibition of tumour cell growth, NCI panel, 48 h

With `CCC/C(=N\NC(=S)N1CCN(c2ccccn2)CC1)c1ccccn1`, the TGI is 0.565 µM and 2.07 µM in the test with MALME-3M melanoma; 0.318 µM in the test on M14 melanoma; > 10 µM and 2.43 µM in the test on NCI-H23 lung; 3.19 µM and 1.54 µM with LOX IMVI melanoma; > 5.42 µM and 2.46 µM with TK-10 renal; 1.64 µM and 1.59 µM in the test with HCC-2998 colon. Moreover, the TGI with SK-MEL-5 melanoma is 2.41 µM and 1.57 µM; with OVCAR-4 ovarian, > 5.77 µM and 2.31 µM; with HCT-15 colon it was 1.55 µM and 1.75 µM; with BT-549 breast, 1.92 µM. The GI50 in the test on M14 melanoma is 0.122 µM; with TK-10 renal it was 1.09 µM; in the test with HCC-2998 colon it was 0.0462 µM; with OVCAR-4 ovarian, 0.0398 µM.

Turning to `CN1CCN(Cc2ccc(-c3cc4ncnc(Nc5ccc(OCc6cccc(F)c6)c(Cl)c5)c4s3)o2)CC1`, the GI50 in the test on MALME-3M melanoma is 4.56 µM; in the test with M14 melanoma, 4.63 µM; in the test with NCI-H23 lung, 4.29 µM; with LOX IMVI melanoma it was 3.66 µM; in the test on TK-10 renal, 3.02 µM; with HCC-2998 colon, 4.24 µM. The GI50 in the test with SK-MEL-5 melanoma was 3.77 µM; with OVCAR-4 ovarian, 3.69 µM; in the test with HCT-15 colon, 2.92 µM; in the test on BT-549 breast it was 4.41 µM. The TGI in the test on MALME-3M melanoma stood at 9.69 µM; with M14 melanoma, 8.81 µM; in the test on NCI-H23 lung it was 8.44 µM; in the test on LOX IMVI melanoma, 8.07 µM; in the test with TK-10 renal, 6.64 µM; with HCC-2998 colon, 7.99 µM. Further, the TGI is 7.54 µM in the test on SK-MEL-5 melanoma, 7.5 µM in the test on OVCAR-4 ovarian, 6.39 µM in the test with HCT-15 colon and 8.91 µM with BT-549 breast.

In the case of `O=C1c2ccccc2-c2c1c1ccccc1c(=O)n2CCCNCCCn1c2c(c3ccccc3c1=O)C(=O)c1ccccc1-2`, the GI50 with MALME-3M melanoma is 12.6 µM; in the test on M14 melanoma, 9.15 µM; with NCI-H23 lung, 10.4 µM; with LOX IMVI melanoma it was 1.49 µM; in the test with TK-10 renal, 5.34 µM; in the test on HCC-2998 colon it was 6.82 µM. In addition, the GI50 was 7.21 µM with SK-MEL-5 melanoma, 3.2 µM in the test on OVCAR-4 ovarian, 1.03 µM in the test with HCT-15 colon and 8.42 µM in the test on BT-549 breast. The TGI is 26.2 µM in the test with MALME-3M melanoma; 30.4 µM in the test on M14 melanoma; > 29.7 µM in the test on NCI-H23 lung; 8.25 µM in the test on LOX IMVI melanoma; 18 µM with TK-10 renal; 17.7 µM with HCC-2998 colon. Besides, the TGI in the test on SK-MEL-5 melanoma came out at 16.9 µM; in the test on OVCAR-4 ovarian, 9.57 µM; in the test on HCT-15 colon, 3.81 µM; in the test with BT-549 breast, 19.7 µM.

For the compound `O=C1OC(c2ccco2)=N/C1=C\c1ccc(Cl)c(Cl)c1`, the TGI with MALME-3M melanoma, in the test with M14 melanoma, in the test on NCI-H23 lung, with LOX IMVI melanoma, in the test on TK-10 renal and with HCC-2998 colon was > 100 µM throughout. In addition, the TGI in the test with SK-MEL-5 melanoma, in the test on OVCAR-4 ovarian, in the test on HCT-15 colon and in the test with BT-549 breast was > 100 µM in each case.

For the compound `COc1ccc(CN2C(=O)/C(=C\c3cc(OC)c(OC)c(OC)c3)c3cc(OC)ccc32)cc1`, the GI50 in the test with MALME-3M melanoma was 3.82 µM; in the test on M14 melanoma, 1.98 µM; in the test on NCI-H23 lung it was 1.84 µM; with LOX IMVI melanoma, 1.35 µM; in the test on TK-10 renal, 3.92 µM; in the test on HCC-2998 colon, 2.05 µM. For the same compound, the GI50 in the test on SK-MEL-5 melanoma was 3.09 µM; with OVCAR-4 ovarian, 3.5 µM; in the test on HCT-15 colon, 1.66 µM; in the test with BT-549 breast, 3.34 µM. Besides, the TGI came out at 34.1 µM in the test with MALME-3M melanoma; 4.32 µM in the test on M14 melanoma; 3.85 µM with NCI-H23 lung; 2.67 µM in the test with LOX IMVI melanoma; 18.6 µM in the test with TK-10 renal; 3.85 µM in the test on HCC-2998 colon. The TGI with SK-MEL-5 melanoma was found to be 9.41 µM; in the test on OVCAR-4 ovarian, 27.4 µM; with HCT-15 colon it was 3.42 µM; in the test on BT-549 breast, 20.4 µM.

For `COc1ccc(C(=O)/C=C/c2ccc(O)c(O)c2F)c(OC)c1`, the GI50 with MALME-3M melanoma is 12 µM; with NCI-H23 lung, 5.27 µM; in the test with LOX IMVI melanoma it was 4.95 µM; with TK-10 renal it was 7.64 µM; with HCC-2998 colon, 3.41 µM; with SK-MEL-5 melanoma, 2.7 µM. The GI50 in the test with OVCAR-4 ovarian is 9.3 µM; in the test on HCT-15 colon, 0.444 µM; with BT-549 breast it was 6.24 µM. In addition, the TGI was 22.6 µM and 25.2 µM in the test with MALME-3M melanoma; 16.7 µM and 28 µM in the test with M14 melanoma; 12.6 µM and 32.1 µM with NCI-H23 lung; 20.3 µM and 20.4 µM in the test on LOX IMVI melanoma; 28.5 µM and 23.4 µM in the test with TK-10 renal; 12.2 µM and 12.3 µM in the test on HCC-2998 colon. The TGI in the test on SK-MEL-5 melanoma was 13.6 µM and 19.6 µM; in the test on OVCAR-4 ovarian, 75 µM and > 100 µM; in the test on HCT-15 colon, 13.8 µM and 29.3 µM; in the test on BT-549 breast it was 18 µM and 26.2 µM.

As for `CCC1=C(C)/C(=C/c2[nH]c(C)c(C(=O)CCCCC(=O)OC)c2C)N=C1c1ccc[nH]1`, the GI50 in the test on MALME-3M melanoma is 13.7 µM; in the test with M14 melanoma it was 18.7 µM; with NCI-H23 lung it was 17.3 µM; in the test on LOX IMVI melanoma, 2.89 µM; in the test on TK-10 renal it was 24.5 µM; in the test with HCC-2998 colon, 22.3 µM. Besides, the GI50 in the test with SK-MEL-5 melanoma was 7.8 µM; in the test on OVCAR-4 ovarian, 3.47 µM; in the test on HCT-15 colon, 15.4 µM; in the test on BT-549 breast it was 3.8 µM. The TGI in the test on MALME-3M melanoma was 45.1 µM; in the test with M14 melanoma, 58.8 µM; with NCI-H23 lung it was 55.5 µM; in the test on LOX IMVI melanoma, > 32.3 µM; in the test on TK-10 renal, 71.1 µM; in the test on HCC-2998 colon, 54.1 µM. The TGI with SK-MEL-5 melanoma is 20.8 µM; with OVCAR-4 ovarian, 17.3 µM; with HCT-15 colon, 66.8 µM; in the test on BT-549 breast, > 41.3 µM.

As to `O=C(/C=C/c1ccco1)c1ccc(Nc2nc(Nc3ccc(F)cc3)nc(Nc3ccc(Cl)cc3)n2)cc1`, the GI50 was 31.9 µM in the test on MALME-3M melanoma; 13.5 µM in the test with M14 melanoma; 17.9 µM in the test on NCI-H23 lung; 16.1 µM with LOX IMVI melanoma; 10.3 µM in the test with TK-10 renal; 38.1 µM in the test with HCC-2998 colon. Also, the GI50 was 23.7 µM in the test with SK-MEL-5 melanoma, 27.1 µM with OVCAR-4 ovarian, 9.47 µM in the test with HCT-15 colon and 2.23 µM in the test on BT-549 breast. Besides, the TGI in the test with MALME-3M melanoma is > 66.2 µM; in the test with M14 melanoma it was 56.9 µM; in the test on NCI-H23 lung, > 63.4 µM; with LOX IMVI melanoma, 39.3 µM; with TK-10 renal, > 35.9 µM; with HCC-2998 colon it was > 100 µM. For the same compound, the TGI was > 100 µM in the test on SK-MEL-5 melanoma, > 88.3 µM with OVCAR-4 ovarian, > 100 µM with HCT-15 colon and > 29.6 µM with BT-549 breast.
